Reference: publication PMC9918900, “New Succinimide–Thiazolidinedione Hybrids as Multitarget Antidiabetic Agents: Design, Synthesis, Bioevaluation, and Molecular Modelling Studies” (Molecules, 2023)

Tests used:
[1] = test system: streptozotocin-induced diabetic rats; experiment: effect on body weight; type: in vivo, Wistar rats; settings: glibenclamide group, 0.5 mg/kg
Experimental: (§1) The antidiabetic activity of the synthesized compound 10d was evaluated using a streptozotocin-induced diabetic rats model.
(§2) Male Wistar rats weighing 150 to 230 gm were used for the study which were housed in polyacrylic cages (no more than six animals per cage) with dimensions of 38 × 23 × 10 cm and maintained under standard laboratory conditions with a dark/light cycle of 14 h of dark and 10 h of light at a temperature of 25 °C. The animals were provided with a standard diet (dry pellet) and water ad libitum. Before the start of the experimental procedures, the rats were acclimatized to laboratory conditions for 10 days. All the experiments were approved and performed as per the guidelines of the Departmental Research Ethics Committee under letter No. DREC/050 [49].
(§3) Non-insulin-dependent diabetes mellitus was induced in fasted rats weighing 150–230 gm using a single dose of streptozotocin (STZ) at a dose of 60 mg/kg intraperitoneally after 15 min of the administration of nicotinamide at a 120 mg/kg dose i.p. Nicotinamide was prepared in normal saline while in citrate buffer (pH 4.5), STZ was prepared. After the induction of diabetes, the increase in the plasma glucose level was measured at 72 h and then measured on the 7th day to confirm hyperglycemia. For the diagnosis of diabetes, the threshold value of the fasting plasma glucose level was considered to be more than 126 mg/dl. For the study, only the animals with permanent NIIDM were utilized.
(§4) The animals were classified into 5 groups with 6 animals in each group (n = 6). Group I comprised of normal control rats which were daily administered drinking water only; group II served as diabetic control rats (disease group); group III served as the positive control and were administered 0.5 mg/kg of the standard drug glibenclamide; and group IV and V served as the test group rats and were administered the test compound 10d at 10 mg/kg and 20 mg/kg, respectively, for twenty-eight days. The fasting glucose concentration was measured on the 0, 7th, 14th, and 28th day of the administration of the extract. During the experimental tenure, the weights of the rats were determined daily and the mean change was recorded.

[2] = test system: streptozotocin-induced diabetic rats; experiment: effect on serum lipid profile of diabetic animals; type: in vivo, Wistar rats; settings: compared to diabetic control group
Experimental: as §1, §2, §3, §4
(§5) The animals were euthanized (sacrificed) via cervical dislocation on the 28th day to observe the biochemical parameters. The parameters studied were triglyceride (TGL), cholesterol, low-density lipoprotein, and high-density lipoprotein (LDL and HDL). The Minias Globe Diagnostic kits were used for cholesterol and TGL. Semi-autoanalyzers were used for the analysis. The serum samples from the rats were also checked for alanine aminotransferase (ALT), aspartate aminotransferase (AST), lactate dehydrogenase (LDH), serum alkaline phosphatase (ALP), and creatinine and urea levels utilizing commercially available kits of Crest Biosystems. The statistical analysis was also performed as per the previous procedure.

[3] = test system: streptozotocin-induced diabetic rats; experiment: in vivo antidiabetic activity, fasting plasma glucose level; design: species or system Wistar rats; settings: STZ-induced diabetic rats, 0.5 mg/kg, 28th day
Experimental: as §1, §2, §3
The animals were classified into 5 groups with 6 animals in each group (n = 6). […] The fasting glucose concentration was measured on the 0, 7th, 14th, and 28th day of the administration of the extract. During the experimental tenure, the weights of the rats were determined daily and the mean change was recorded.

[4] = test system: streptozotocin-induced diabetic rats; experiment: liver and renal serum biomarkers; type: in vivo, Wistar rats; settings: 0.5 mg/kg, 28th day
Experimental: as §3, §4, §5

## COc1ccc(Cl)cc1C(=O)NCCc1ccc(S(=O)(=O)NC(=O)NC2CCCCC2)cc1 [Glibenclamide, glibenclamide, reference compound]
[1]
  Change in Body Weight, After Induction: 160.52 ± 2.23 gm
  Change in Body Weight, Before Induction: 180.66 ± 1.67 ^ns gm
[1]; 28 days
  Change in Body Weight, After Treatment: 176.90 ± 4.45 gm
[2]
  HDL level: greater than before
  LDL in serum: significant decline
  total cholesterol level in serum: significant decline
  triglyceride in serum: significant decline
[3]
  blood glucose level: 72.44 ± 3.58 mg/dL
[4]
  ALP: 124.42 ± 2.35 U/L
  ALT: 76.23 ± 2.13 U/L
  AST: 80.36 ± 2.12 U/L
  Creatinine: 0.44 ± 0.04 ^ns mg/dl
  LDH: 826.21 ± 5.60 U/L
  Urea: 42.45 ± 2.21 mg/dL
